Test results: PubChem BioAssay (NCI)
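Tested at 5 concentrations; 48 h exposure; 96-well plates; endpoints linearly interpolated, else capped at highest concentration. GI50 = concentration required for 50% inhibition of growth. Definition used: TGI = concentration required for complete inhibition of growth.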

Experiments:
Experiment in all cases: NCI-60 cell line screen, 48 h
IGROV1 ovarian = tested on: IGROV1 ovarian
SNB-75 CNS = tested on: SNB-75 CNS
SW-620 colon = tested on: SW-620 colon
SR leukemia = tested on: SR leukemia
SN12C renal = tested on: SN12C renal
HOP-62 NSCLC = tested on: HOP-62 NSCLC
ACHN renal = tested on: ACHN renal
TK-10 renal = tested on: TK-10 renal
A498 renal = tested on: A498 renal
HT29 colon = tested on: HT29 colon

Row | Structure (SMILES) | GI50 (IGROV1 ovarian) [µM] | TGI (IGROV1 ovarian) [µM] | GI50 (SNB-75 CNS) [µM] | TGI (SNB-75 CNS) [µM] | GI50 (SW-620 colon) [µM] | TGI (SW-620 colon) [µM] | GI50 (SR leukemia) [µM] | TGI (SR leukemia) [µM] | GI50 (SN12C renal) [µM] | TGI (SN12C renal) [µM] | GI50 (HOP-62 NSCLC) [µM] | TGI (HOP-62 NSCLC) [µM] | GI50 (ACHN renal) [µM] | TGI (ACHN renal) [µM] | GI50 (TK-10 renal) [µM] | TGI (TK-10 renal) [µM] | GI50 (A498 renal) [µM] | TGI (A498 renal) [µM] | GI50 (HT29 colon) [µM] | TGI (HT29 colon) [µM]
1 | COc1cccc2c1C(=O)c1c(O)c3c(c(O)c1C2=O)C[C@@](O)(/C(CO)=N/NC(=O)CCCCCN1C(=O)C=CC1=O)C[C@@H]3O[C@H]1C[C@H](N)[C@H](O)[C@H](C)O1 | 1.04 | > 100 | 0.368 | 2.99 | 0.357 | > 49 | 0.109 | > 100 | 0.446 | > 100 | 0.674 | 10.5 | 0.717 | > 51.5 | 1.68 | > 27.4 | 0.361 | 2.15 | 1.37 | 13.2
2 | Cc1nc2sc(C(=O)Nc3cccc(Br)c3C)c(N)c2cc1C(O)c1ccccc1 (centres undefined) | 0.0487 | 13.2 | 0.0279 | 13.4 | 0.0382 | 19.3 | 0.0374 | > 100 | 0.0581 | 6.04 | 0.0549 | 18.5 | 0.0743 | 14.3 | 1.49 | > 63 | 0.0181 | 0.058 | 0.0374 | 12.7
3 | CC[C@@H](C)/C=C(C)/C=C/C(=O)c1c(O)c(-c2ccc(OC(=O)[C@@]34CC[C@@](C)(C(=O)O3)C4(C)C)cc2)cn(O)c1=O | 1.72 | 41.4 | 4.34 | > 50 | 2.43 | > 50 | 1.32 | 7.4 | 2.47 | > 50 | 2.05 | > 50 | 1.32 | 11.6 | 1.99 | > 50 | 5.6 | > 50 | 21.2 | > 50
4 | O=C(Nc1nc(-c2ccc(Cl)cc2)cs1)c1cc(O)c(O)c(O)c1 | 183 | 939 | 162 | 3990 | 168 | > 5000 | 96.3 | 1060 | 172 | 3780 | 255 | 1880 | 113 | 1140 | 207 | 1470 | 927 | 3480 | 572 | 2250
5 | CCc1nc(C)cn1C(=O)OCc1nc2nc(Cl)nc(N3CCOCC3)c2[nH]1 | 0.501 | 1.86 | 0.579 | 2.06 | 1.11 | 2.69 | 0.288 | > 100 | 1.35 | 2.74 | 1.54 | 3.56 | 0.854 | 2.09 | 1.79 | 3.28 | 1.92 | 3.54 | 1 | 4.04
6 | Cn1ncc(C#N)c1-c1ccc2c(c1)CN([C@H](CN)Cc1cccc(F)c1)C2=O | 0.0489 | 1.59 | 0.0925 | 3.09 | 23.3 | > 100 | 17.2 | 50.7 | 19.7 | > 100 | 23.6 | > 100 | 13.6 | > 100 | 0.787 | 24 | 0.157 | 1.39 | 3.25 | > 100
7 | C=CCn1c2ccccc2c2c3c(c4c5ccccc5n(CC=C)c4c21)C(=O)N(O)C3=O | 1.4 | 3.8 | 3.55 | 24.2 | 4.42 | 29.5 | 0.363 | 5.67 | 3.36 | 13.2 | 2.49 | 12.7 | 1.6 | 3.89 | 6.16 | 35.7 | 2.55 | 9.48 | 2.02 | 4.9
8 | Cc1ccc(/C=N/NC(=O)c2ccccc2Oc2ccccc2)o1 | 59.5 | > 100 | 12.8 | > 100 | > 77.6 | > 100 | 40 | > 100 | 32.9 | > 100 | 70.9 | > 100 | 28.5 | > 100 | 71.6 | > 100 | > 58.5 | > 100 | 63.8 | > 100
9 | Nc1[nH]nc2nc(-c3cc(Cl)ccc3Cl)cc(-c3ccc(F)cc3)c12 | 19 | 48.7 | 51.5 | > 100 | 25.4 | 68.7 | 18 | 69.2 | 20.4 | 38.6 | 22.7 | 47.8 | 31.9 | > 100 | 52.9 | > 100 | 20.4 | 42.2 | 32.5 | > 100
10 | C=C1C(=O)O[C@H]2[C@H]1CC/C(COC(=O)c1cccnc1N)=C\CC[C@@]1(C)O[C@@H]21 | 2.56 | 11.6 | 3.16 | 17.8 | 0.583 | 3.82 | 0.539 | 10.4 | 2.01 | 10.9 | 4.89 | 18.6 | 1.03 | 10.3 | 2.59 | 10.4 | 2.56 | 7.27 | 0.721 | 11
11 | CC1=CC(=O)N(c2cccc3c(N4C(=O)C=C(C)C4=O)cccc23)C1=O | 3.55 | 16.2 | 28.1 | > 100 | 0.99 | 2.93 | 1.56 | 5.22 | 8.62 | 26.5 | 28.3 | > 69.3 | 2.78 | 11 | 3.1 | 7.83 | 26.6 | 56.5 | 2.73 | 8.1
12 | Cc1sc(C(=O)c2cncnc2N[C@@H]2C[C@H](COS(N)(=O)=O)[C@@H](O)C2)cc1[C@@H]1NCCc2ccc(Cl)cc21 | 11 | 25.7 | 1.65 | 20.1 | 7.63 | 24.5 | 0.547 | 26.3 | 9.85 | 24.5 | 12.9 | 28.1 | 11.8 | 25.7 | 12.9 | 26.8 | 4.26 | 20.2 | 0.234 | 20.9
13 | Cc1ccccc1NC(=O)/C(=N\NC(N)=S)C(C#N)c1ccccc1 (centres undefined) |  | > 100 |  | > 100 |  | > 100 |  | > 100 |  | > 100 |  | > 100 |  | > 100 |  | > 100 |  | > 100 |  | > 100
14 | CNC(=O)ON(C(C)=O)C(=O)NC |  | 241 |  | 182 | > 94 | 224 | 7.31 | > 72.3 |  | 166 |  | 309 | > 60.8 | 47.7 |  | 70.6 |  | 211 | 94.1 | 242
